Values after ≈ are worked out from the molar mass of the structure shown.
Tests used:
Staphylococcus aureus [1] = test: Antibacterial activity against methicillin-sensitive Staphylococcus aureus ATCC 25923 after 24 to 72 hrs by two-fold serial dilution method; type: functional
Staphylococcus aureus [2] = test: Antibacterial activity against methicillin resistant Staphylococcus aureus BAA 1762 after 24 to 72 hrs by two-fold serial dilution method; type: functional
Staphylococcus aureus [3] = test: Antibacterial activity against methicillin-resistant Staphylococcus aureus; type: functional
Staphylococcus aureus [4] = test: Bactericidal activity against methicillin-resistant Staphylococcus aureus; type: functional
Erythrocyte = test: Hemolytic activity against human erythrocytes; type: ADME, cell-based
[5] = Cytotoxicity against African green monkey Vero cells assessed as reduction in cell viability by MTT assay; type: cell-based; conditions: chlorocebus sabaeus, read-out: MIC
Staphylococcus aureus [6] = test: Antimicrobial activity against Staphylococcus aureus ATCC 6538 after 24 hrs by colony counting method; type: functional; conditions: ATCC 6538, 24 h
Staphylococcus aureus [7] = test: Antibacterial activity against methicillin-resistant Staphylococcus aureus ATCC 33591; type: functional
Staphylococcus aureus [8] = test: Antibacterial activity against methicillin-resistant Staphylococcus aureus ATCC 43300; type: functional
Staphylococcus aureus [9] = test: Antibacterial activity against methicillin-resistant Staphylococcus aureus TISTR 1466 by two-fold serial dilution method; type: functional
Staphylococcus aureus [10] = test: Antibacterial activity against methicillin-resistant Staphylococcus aureus CGMCC 1.12409; type: functional
[11] = Inhibition of methicillin-resistant Staphylococcus aureus pyruvate kinase
Staphylococcus aureus [12] = test: Antibacterial activity against methicillin-resistant Staphylococcus aureus ATCC 43300 after 18 hrs; type: functional, organism-based; conditions: ATCC 43300, 18 h
Staphylococcus aureus [13] = test: Antibacterial activity against methicillin-resistant Staphylococcus aureus SK1 by two-fold serial dilution method; type: functional
HT-29 = test: Cytotoxicity against human HT-29 cells assessed as reduction in cell viability after 24 hrs by MTS assay; type: functional, cell-based; conditions: HT-29, 24 h

COC(=O)/C=C/C(=O)c1ccc(Cl)cc1
MIC (Staphylococcus aureus [1]): 0.35 to 0.75 µg/mL (≈ 1.56 to 3.34 µM) | MIC (Staphylococcus aureus [2]): 0.35 to 0.75 µg/mL (≈ 1.56 to 3.34 µM)

COc1ccc2c(c1OC)C(O)N(C)c1c-2ccc2cc3c(cc12)OCO3 (stereo not given)
MIC (Staphylococcus aureus [3]): 0.49 to 15.6 µg/mL | MBC (Staphylococcus aureus [4]): 1.95 to 62.5 µg/mL (≈ 5.34 to 171 µM)

COc1c(OCCCCN)cc2oc3cc(OCCCCN)c(CC=C(C)C)c(O)c3c(=O)c2c1CC=C(C)C
MIC (Staphylococcus aureus [3]): 1560 to 3120 µM | MHC (Erythrocyte): 80.2 µg/mL

CCCC(=O)C1=C(O)C(C)(C)C(O)=C(Cc2c(O)c(C)c(OC)c(C(=O)CCC)c2O)C1=O
MCC [5]: 48.1 µg/mL | MIC (Staphylococcus aureus [6]): 15 to 62 µg/mL (≈ 32.6 to 135 µM)

CCCCCCC(C)/C=C(\C)C(=O)O[C@@]1(C)C(=O)C2=COC(C3=C(C)CC(O)CC3=O)=CC2=C(Cl)C1=O (stereo not given in full)
MIC (Staphylococcus aureus [7]): 3.13 to 6.25 µg/mL (≈ 5.89 to 11.8 µM) | MIC (Staphylococcus aureus [8]): 3.13 to 6.25 µg/mL (≈ 5.89 to 11.8 µM)

CCCCCCC(C)/C=C(\C)C(=O)O[C@@]1(C)C(=O)C=C2C=C(c3c(C)cccc3O)OC=C2C1=O (stereo not given in full)
MIC (Staphylococcus aureus [7]): 3.13 to 6.25 µg/mL (≈ 6.54 to 13.1 µM) | MIC (Staphylococcus aureus [8]): 3.13 to 6.25 µg/mL (≈ 6.54 to 13.1 µM)

CCCCCCC(C)/C=C(\C)C(=O)O[C@@]1(C)C(=O)C2=COC(c3c(C)cccc3O)=CC2=C(Cl)C1=O (stereo not given in full)
MIC (Staphylococcus aureus [7]): 3.13 to 6.25 µg/mL (≈ 6.1 to 12.2 µM) | MIC (Staphylococcus aureus [8]): 3.13 to 6.25 µg/mL (≈ 6.1 to 12.2 µM)

CCCCOc1c(OC)cc(/C=C2\SC(=O)NC2=O)c2c1CN1CCc3cc4c(cc3C1C2)OCO4 (stereo not given)
MIC (Staphylococcus aureus [3]): 8 µM

C=C(C)/C=C/c1c(C(=O)OC)cc(O)c2[nH]c3ccccc3c12
MIC (Staphylococcus aureus [9]): 4 µg/mL (≈ 13 µM)

CC1=C[C@H]2c3c(O)c(O)c4oc5cc(O)cc(O)c5c(=O)c4c3[C@H](c3cc(O)c(O)c4oc5cc(O)cc(O)c5c(=O)c34)[C@H]2C(C)(C)C1
MIC (Staphylococcus aureus [10]): 3.9 µg/mL (≈ 5.98 µM) | MIC (Staphylococcus aureus [8]): 3.9 µg/mL (≈ 5.98 µM)

COc1cc(OC)c(C2COc3c(cc(/C=C/C(=O)c4ccco4)c4c3C=CC(C)(C)O4)C2)cc1/C=C/C(=O)c1ccco1 (stereo not given)
MIC (Staphylococcus aureus [3]): 12.5 µg/mL

O=C1NC[C@@H](c2c[nH]c3cc(Br)ccc23)N[C@H]1c1c[nH]c2cc(Br)ccc12 (relative stereo) [CIS-3,4-DIHYDROHAMACANTHIN B]
MIC (Staphylococcus aureus [3]): 12.5 µg/mL | IC50 [11]: 0.016 to 0.06 µM

COc1c(-c2ccc(O)c(O)c2)oc2cc(O)cc(O)c2c1=O [3-O-METHYLQUERCETIN]
IC50 (Staphylococcus aureus [12]): 6.4 µM

C=C(C)C1Cc2c(cc(OC)c3[nH]c4ccccc4c23)C(=O)O1 (stereo not given) [CLAUSAMINE B]
MIC (Staphylococcus aureus [9]): 8 µg/mL (≈ 26 µM) | MIC (Staphylococcus aureus [13]): 0.25 µg/mL (≈ 0.813 µM)

COc1ccc2cc1Oc1ccc(cc1)C[C@H]1c3cc(c(OC)cc3CCN1C)Oc1c(OC)c(OC)cc3c1[C@H](C2)N(C)CC3 [FANCHININ]
MIC (Staphylococcus aureus [3]): 6 to 128 µg/mL | MIC (Staphylococcus aureus [4]): 256 to 1020 µg/mL (≈ 411 to 1640 µM)

COc1ccc2cc1Oc1ccc(cc1)C[C@H]1c3cc(c(OC)cc3CCN1C)Oc1c(O)c(OC)cc3c1[C@H](C2)N(C)CC3 [FANGCHINOLINE]
MIC (Staphylococcus aureus [3]): 6 to 128 µg/mL | MIC (Staphylococcus aureus [4]): 256 to 1020 µg/mL (≈ 421 to 1680 µM)

O=c1cc(-c2ccc(O)c(O)c2)oc2cc(O)cc(O)c12 [LUTEOLIN]
IC50 (HT-29): 45 µM

CN[C@H](CC(C)C)C(=O)N[C@H]1C(=O)N[C@@H](CC(N)=O)C(=O)N[C@H]2C(=O)N[C@H]3C(=O)N[C@H](C(=O)N[C@H](C(=O)O)c4cc(O)cc(O)c4-c4cc3ccc4O)[C@H](O)c3ccc(c(Cl)c3)Oc3cc2cc(c3O[C@@H]2O[C@H](CO)[C@@H](O)[C@H](O)[C@H]2O[C@H]2C[C@](C)(N)[C@H](O)[C@H](C)O2)Oc2ccc(cc2Cl)[C@H]1O [VANCOMYCIN]
MIC (Staphylococcus aureus [3]): 1.25 µg/mL
